Molecular target: T1, Human M4 (Homo sapiens, UniProt P08173)
T1 construct: expressed in transfected cells
T1 sequence (P08173 1-479): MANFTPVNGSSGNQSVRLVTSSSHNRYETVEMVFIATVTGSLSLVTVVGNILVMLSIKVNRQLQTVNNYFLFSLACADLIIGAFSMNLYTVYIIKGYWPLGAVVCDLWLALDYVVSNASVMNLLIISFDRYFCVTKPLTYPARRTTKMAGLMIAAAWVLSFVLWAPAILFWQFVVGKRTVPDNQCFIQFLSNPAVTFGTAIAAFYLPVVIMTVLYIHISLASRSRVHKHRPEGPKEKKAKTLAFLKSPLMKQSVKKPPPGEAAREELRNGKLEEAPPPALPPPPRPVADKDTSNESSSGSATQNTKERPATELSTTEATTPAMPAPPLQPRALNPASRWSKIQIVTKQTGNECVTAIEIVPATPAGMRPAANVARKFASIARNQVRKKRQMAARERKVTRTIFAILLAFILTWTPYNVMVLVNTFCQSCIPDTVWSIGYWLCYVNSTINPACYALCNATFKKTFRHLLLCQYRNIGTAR
Experiment: mAChR M4 cell-based functional assay (calcium flux, potentiation of EC20 acetylcholine response), hM4-Gqi5 CHO-K1 cells
Details: for Emax at 30 µM: CHO-K1, Human M4, % ACh maximum at 30 μM, read-out: Emax (% ACh maximum at 30 μM); for Emax at 30 µM / EC50: Table 3; for EC50: potentiation of EC20 acetylcholine response, calcium flux, CHO-K1 cells, read-out: Human M4 EC50
Method in brief: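 CHO-K1 cells stably expressing human M4 with chimeric Gqi5, loaded with Fluo-4 AM 50 min at 37 °C; calcium flux read by FDSS. 11-point 1:3 compound curves added, then EC20 acetylcholine at 144 s; potentiation of the EC20 response fitted by four-parameter logistic to give EC50 and Emax.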

Cc1c(N2CCc3ncc(N4CCCn5nccc54)cc3C2)nn2cnnc2c1C [Compound 209, 3-(6,7-dihydropyrazolo[1,5-a]pyrimidin-4(5H)-yl)-6-(7,8-dimethyl-[1,2,4]triazolo[4,3-b]pyridazin-6-yl)-5,6,7,8-tetrahydro-1,6-naphthyridine]
Emax at 30 µM: 99% | EC50: 0.071 µM

Cc1c(N2CCc3ncc(Nc4nn(C)c5ccccc45)cc3C2)nn2cnnc2c1C [Compound 210, 6-(7,8-dimethyl-[1,2,4]triazolo[4,3-b]pyridazin-6-yl)-N-(1-methyl-1H-indazol-3-yl)-5,6,7,8-tetrahydro-1,6-naphthyridin-3-amine]
Emax at 30 µM: 69% | EC50: 0.9 µM

Cc1cc(Nc2cnc3c(c2)CN(c2nn4cnnc4c(C)c2C)CC3)n(CCC(C)C)n1 [Compound 211, 6-(7,8-dimethyl-[1,2,4]triazolo[4,3-b]pyridazin-6-yl)-N-(1-isopentyl-3-methyl-1H-pyrazol-5-yl)-5,6,7,8-tetrahydro-1,6-naphthyridin-3-amine]
Emax at 30 µM: 38% | EC50: 4.12 µM

Cc1cc(Nc2cnc3c(c2)CN(c2nn4cnnc4c(C)c2C)CC3)n(CC(C)C)n1 [Compound 212, 6-(7,8-dimethyl-[1,2,4]triazolo[4,3-b]pyridazin-6-yl)-N-(1-isobutyl-3-methyl-1H-pyrazol-5-yl)-5,6,7,8-tetrahydro-1,6-naphthyridin-3-amine]
Emax at 30 µM: 41% | EC50: 5.41 µM

CCCCn1nc(C)cc1Nc1cnc2c(c1)CN(c1nn3cnnc3c(C)c1C)CC2 [Compound 213, N-(1-butyl-3-methyl-1H-pyrazol-5-yl)-6-(7,8-dimethyl-[1,2,4]triazolo[4,3-b]pyridazin-6-yl)-5,6,7,8-tetrahydro-1,6-naphthyridin-3-amine]
Emax at 30 µM: 52% | EC50: 2.48 µM

Cc1cc(Nc2cnc3c(c2)CN(c2nn4cnnc4c(C)c2C)CC3)n(C(C)C)n1 [Compound 214, 6-(7,8-dimethyl-[1,2,4]triazolo[4,3-b]pyridazin-6-yl)-N-(1-isopropyl-3-methyl-1H-pyrazol-5-yl)-5,6,7,8-tetrahydro-1,6-naphthyridin-3-amine]
Emax at 30 µM: 45% | EC50: 5.5 µM

Cc1c(N2CCc3ncc(-c4ccc(N5CCC(F)(F)CC5)nc4)cc3C2)nn2cnnc2c1C [Compound 215, 3-(6-(4,4-difluoropiperidin-1-yl)pyridin-3-yl)-6-(7,8-dimethyl-[1,2,4]triazolo[4,3-b]pyridazin-6-yl)-5,6,7,8-tetrahydro-1,6-naphthyridine]
Emax at 30 µM: 86% | EC50: 0.351 µM

Cc1c(N2CCc3ncc(-c4ccc(N5CCCC(F)C5)nc4)cc3C2)nn2cnnc2c1C (centres unmarked) [Compound 216, 6-(7,8-dimethyl-[1,2,4]triazolo[4,3-b]pyridazin-6-yl)-3-(6-(3-fluoropiperidin-1-yl)pyridin-3-yl)-5,6,7,8-tetrahydro-1,6-naphthyridine]
Emax at 30 µM: 82% | EC50: 0.224 µM

Cc1c(N2CCc3ncc(-c4ccc(N5CCC5)nc4)cc3C2)nn2cnnc2c1C [Compound 217, 3-(6-(azetidin-1-yl)pyridin-3-yl)-6-(7,8-dimethyl-[1,2,4]triazolo[4,3-b]pyridazin-6-yl)-5,6,7,8-tetrahydro-1,6-naphthyridine]
Emax at 30 µM: 83% | EC50: 0.223 µM

Cc1c(N2CCc3ncc(C(C)C)cc3C2)nn2cnnc2c1C [Compound 218, 6-(7,8-dimethyl-[1,2,4]triazolo[4,3-b]pyridazin-6-yl)-3-isopropyl-5,6,7,8-tetrahydro-1,6-naphthyridine]
Emax at 30 µM: 89% | EC50: 0.186 µM

Cc1c(N2CCc3ncc(C(C)(C)O)cc3C2)nn2c(C(F)(F)F)nnc2c1C [Compound 219, 2-(6-(7,8-dimethyl-3-(trifluoromethyl)-[1,2,4]triazolo[4,3-b]pyridazin-6-yl)-5,6,7,8-tetrahydro-1,6-naphthyridin-3-yl)propan-2-ol]
Emax at 30 µM: 81% | EC50: 0.906 µM

Cc1c(N2CCc3ncc(O)cc3C2)nn2cnnc2c1C [Compound 220, 6-(7,8-dimethyl-[1,2,4]triazolo[4,3-b]pyridazin-6-yl)-5,6,7,8-tetrahydro-1,6-naphthyridin-3-ol]
Emax (CHO-K1, read-out: Emax (% ACh maximum at 30 μM)): 81% | EC50: 1.37 µM

Cc1c(N2CCc3ncc(OCC(C)C)cc3C2)nn2cnnc2c1C [Compound 221, 6-(7,8-dimethyl-[1,2,4]triazolo[4,3-b]pyridazin-6-yl)-3-isobutoxy-5,6,7,8-tetrahydro-1,6-naphthyridine]
Emax at 30 µM: 76% | EC50: 0.588 µM

Cc1c(N2CCc3ncc(C4CC4)cc3C2)nn2c(C(F)(F)F)nnc2c1C [Compound 222, 3-cyclopropyl-6-(7,8-dimethyl-3-(trifluoromethyl)-[1,2,4]triazolo[4,3-b]pyridazin-6-yl)-5,6,7,8-tetrahydro-1,6-naphthyridine]
Emax at 30 µM: 83% | EC50: 0.088 µM

Cc1c(N2CCc3ncc(-c4ccc(N5CCOCC5)cc4)cc3C2)nn2cnnc2c1C [Compound 223, 4-(4-(6-(7,8-dimethyl-[1,2,4]triazolo[4,3-b]pyridazin-6-yl)-5,6,7,8-tetrahydro-1,6-naphthyridin-3-yl)phenyl)morpholine]
Emax at 30 µM: 95% | EC50: 0.329 µM

Cc1c(N2CCc3ncc(-c4ccc(N5CCN(C)CC5)cc4)cc3C2)nn2cnnc2c1C [Compound 224, 6-(7,8-dimethyl-[1,2,4]triazolo[4,3-b]pyridazin-6-yl)-3-(4-(4-methylpiperazin-1-yl)phenyl)-5,6,7,8-tetrahydro-1,6-naphthyridine]
Emax at 30 µM: 100% | EC50: 0.581 µM

Cc1c(N2CCc3ncc(-c4ccc(N5CCC(F)(F)C5)nc4)cc3C2)nn2cnnc2c1C [Compound 225, 3-(6-(3,3-difluoropyrrolidin-1-yl)pyridin-3-yl)-6-(7,8-dimethyl-[1,2,4]triazolo[4,3-b]pyridazin-6-yl)-5,6,7,8-tetrahydro-1,6-naphthyridine]
Emax at 30 µM: 85% | EC50: 0.435 µM

Cc1c(N2CCc3ncc(C(=O)Nc4ccccc4F)cc3C2)nn2c(C(F)(F)F)nnc2c1C [Compound 226, 6-(7,8-dimethyl-3-(trifluoromethyl)-[1,2,4]triazolo[4,3-b]pyridazin-6-yl)-N-(2-fluorophenyl)-5,6,7,8-tetrahydro-1,6-naphthyridine-3-carboxamide]
Emax at 30 µM: 79% | EC50: 1.78 µM

Cc1c(N2CCc3ncc(C(=O)N4CCCC4)cc3C2)nn2c(C(F)(F)F)nnc2c1C [Compound 227, (6-(7,8-dimethyl-3-(trifluoromethyl)-[1,2,4]triazolo[4,3-b]pyridazin-6-yl)-5,6,7,8-tetrahydro-1,6-naphthyridin-3-yl)(pyrrolidin-1-yl)methanone]
Emax at 30 µM: 76% | EC50: 6.41 µM

Cc1c(N2CCc3ncc(C(=O)NCc4cncs4)cc3C2)nn2c(C(F)(F)F)nnc2c1C [Compound 228, 6-(7,8-dimethyl-3-(trifluoromethyl)-[1,2,4]triazolo[4,3-b]pyridazin-6-yl)-N-(thiazol-5-ylmethyl)-5,6,7,8-tetrahydro-1,6-naphthyridine-3-carboxamide]
Emax at 30 µM: 85% | EC50: 1.72 µM

COc1ccc2c(c1)CCCN2c1cnc2c(c1)CN(c1nn3c(C(F)(F)F)nnc3c(C)c1C)CC2 [Compound 229, 6-(7,8-dimethyl-3-(trifluoromethyl)-[1,2,4]triazolo[4,3-b]pyridazin-6-yl)-3-(6-methoxy-3,4-dihydroquinolin-1(2H)-yl)-5,6,7,8-tetrahydro-1,6-naphthyridine]
Emax at 30 µM: 48% | EC50: 0.59 µM

Cc1c(N2CCc3ncc(N4CCOc5ccccc54)cc3C2)nn2c(C(F)(F)F)nnc2c1C [Compound 230, 4-(6-(7,8-dimethyl-3-(trifluoromethyl)-[1,2,4]triazolo[4,3-b]pyridazin-6-yl)-5,6,7,8-tetrahydro-1,6-naphthyridin-3-yl)-3,4-dihydro-2H-benzo[b][1,4]oxazine]
Emax at 30 µM: 83% | EC50: 0.398 µM

Cc1c(N2CCc3ncc(N4CCCc5ccccc54)cc3C2)nn2c(C(F)(F)F)nnc2c1C [Compound 231, 3-(3,4-dihydroquinolin-1(2H)-yl)-6-(7,8-dimethyl-3-(trifluoromethyl)-[1,2,4]triazolo[4,3-b]pyridazin-6-yl)-5,6,7,8-tetrahydro-1,6-naphthyridine]
Emax at 30 µM: 65% | EC50: 1.93 µM

Cc1c(N2CCc3ncc(N4CCOc5ccc(F)cc54)cc3C2)nn2c(C(F)(F)F)nnc2c1C [Compound 232, 4-(6-(7,8-dimethyl-3-(trifluoromethyl)-[1,2,4]triazolo[4,3-b]pyridazin-6-yl)-5,6,7,8-tetrahydro-1,6-naphthyridin-3-yl)-6-fluoro-3,4-dihydro-2H-benzo[b][1,4]oxazine]
Emax at 30 µM: 83% | EC50: 0.353 µM

Cc1cc2nncn2nc1N1CCc2ncc(C(C)(C)O)cc2C1 [Compound 233, 2-(6-(7-methyl-[1,2,4]triazolo[4,3-b]pyridazin-6-yl)-5,6,7,8-tetrahydro-1,6-naphthyridin-3-yl)propan-2-ol]
Emax at 30 µM: 97% | EC50: 4.01 µM
